Test results: PubChem BioAssay AID1845202 (Molecular Pharmacology Branch, DTP, NCI, 2023)

Test system: DMS 114 tumor spheroids, viability % test/control
Experiment: Anticancer human tumor DMS 114 cell line growth inhibition;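 further: spheroids exposed to compounds for 7 days before read-out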;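 on viability, T/C: luminescence used as a proxy for viable cells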
Conditions: spheroids with HUVEC and MSC; for IC50: curve of first compound; for viability, T/C: stronger effect = lower value
Summary of the method: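 Single agents and combinations were tested on spheroids built from tumor cells plus HUVEC and hMSC, at half-log dilutions starting at or near clinical Cmax, else 10 microM; final DMSO 0.25% (v/v).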

CNCc1ccc(-c2cc(-c3nc(-c4ccc(S(=O)(=O)C(C)C)cc4)cnc3N)on2)cc1 + CC[C@@]1(O)C(=O)OCc2c1cc1n(c2=O)Cc2cc3c(CN(C)C)c(O)ccc3nc2-1
IC50 (second compound 0.003 µM): 60 nM | IC50 (second compound 0.00949 µM): 25 nM | IC50 (second compound 0.03 µM): < 9.49 nM | IC50 (second compound 0.0949 µM): < 9.49 nM | IC50 (second compound 0.3 µM): < 9.49 nM | viability, T/C (second compound 0.003 µM, first compound 0.00949 µM): 98.5% | viability, T/C (second compound 0.003 µM, first compound 0.03 µM): 68.3% | viability, T/C (second compound 0.003 µM, first compound 0.0949 µM): 37.7% | viability, T/C (second compound 0.003 µM, first compound 0.3 µM): 17.1% | viability, T/C (second compound 0.003 µM, first compound 0.949 µM): 2.3% | viability, T/C (second compound 0.003 µM, first compound 3 µM): 0.16% | viability, T/C (second compound 0.00949 µM, first compound 0.00949 µM): 80.3% | viability, T/C (second compound 0.00949 µM, first compound 0.03 µM): 43% | viability, T/C (second compound 0.00949 µM, first compound 0.0949 µM): 23.5% | viability, T/C (second compound 0.00949 µM, first compound 0.3 µM): 14.3% | viability, T/C (second compound 0.00949 µM, first compound 0.949 µM): 3.11% | viability, T/C (second compound 0.00949 µM, first compound 3 µM): 0.14% | viability, T/C (second compound 0.03 µM, first compound 0.00949 µM): 31.3% | viability, T/C (second compound 0.03 µM, first compound 0.03 µM): 26.6% | viability, T/C (second compound 0.03 µM, first compound 0.0949 µM): 23.7% | viability, T/C (second compound 0.03 µM, first compound 0.3 µM): 11.9% | viability, T/C (second compound 0.03 µM, first compound 0.949 µM): 1.54% | viability, T/C (second compound 0.03 µM, first compound 3 µM): 0.13% | viability, T/C (second compound 0.0949 µM, first compound 0.00949 µM): 16.2% | viability, T/C (second compound 0.0949 µM, first compound 0.03 µM): 17% | viability, T/C (second compound 0.0949 µM, first compound 0.0949 µM): 12.5% | viability, T/C (second compound 0.0949 µM, first compound 0.3 µM): 9.06% | viability, T/C (second compound 0.0949 µM, first compound 0.949 µM): 1.27% | viability, T/C (second compound 0.0949 µM, first compound 3 µM): 0.12% | viability, T/C (second compound 0.3 µM, first compound 0.00949 µM): 8.52% | viability, T/C (second compound 0.3 µM, first compound 0.03 µM): 8.82% | viability, T/C (second compound 0.3 µM, first compound 0.0949 µM): 9.74% | viability, T/C (second compound 0.3 µM, first compound 0.3 µM): 6.32% | viability, T/C (second compound 0.3 µM, first compound 0.949 µM): 0.95% | viability, T/C (second compound 0.3 µM, first compound 3 µM): 0.2%

Cn1ncnc1[C@H]1c2n[nH]c(=O)c3cc(F)cc(c23)N[C@@H]1c1ccc(F)cc1 + Cn1nnc2c(C(N)=O)ncn2c1=O
IC50 (second compound 1 µM): 696 nM | IC50 (second compound 3.16 µM): 646 nM | IC50 (second compound 10 µM): 208 nM | IC50 (second compound 31.6 µM): < 9.49 nM | IC50 (second compound 100 µM): < 9.49 nM | viability, T/C (second compound 1 µM, first compound 0.00949 µM): 106% | viability, T/C (second compound 1 µM, first compound 0.03 µM): 107% | viability, T/C (second compound 1 µM, first compound 0.0949 µM): 98.8% | viability, T/C (second compound 1 µM, first compound 0.3 µM): 82.6% | viability, T/C (second compound 1 µM, first compound 0.949 µM): 37.9% | viability, T/C (second compound 1 µM, first compound 3 µM): 11.6% | viability, T/C (second compound 3.16 µM, first compound 0.00949 µM): 112% | viability, T/C (second compound 3.16 µM, first compound 0.03 µM): 107% | viability, T/C (second compound 3.16 µM, first compound 0.0949 µM): 97.2% | viability, T/C (second compound 3.16 µM, first compound 0.3 µM): 77.2% | viability, T/C (second compound 3.16 µM, first compound 0.949 µM): 36% | viability, T/C (second compound 3.16 µM, first compound 3 µM): 14% | viability, T/C (second compound 10 µM, first compound 0.00949 µM): 111% | viability, T/C (second compound 10 µM, first compound 0.03 µM): 82.7% | viability, T/C (second compound 10 µM, first compound 0.0949 µM): 65.8% | viability, T/C (second compound 10 µM, first compound 0.3 µM): 43.4% | viability, T/C (second compound 10 µM, first compound 0.949 µM): 27.1% | viability, T/C (second compound 10 µM, first compound 3 µM): 16.2% | viability, T/C (second compound 31.6 µM, first compound 0.00949 µM): 51.5% | viability, T/C (second compound 31.6 µM, first compound 0.03 µM): 39.3% | viability, T/C (second compound 31.6 µM, first compound 0.0949 µM): 32.4% | viability, T/C (second compound 31.6 µM, first compound 0.3 µM): 27.6% | viability, T/C (second compound 31.6 µM, first compound 0.949 µM): 20.7% | viability, T/C (second compound 31.6 µM, first compound 3 µM): 10.8% | viability, T/C (second compound 100 µM, first compound 0.00949 µM): 24.1% | viability, T/C (second compound 100 µM, first compound 0.03 µM): 23.1% | viability, T/C (second compound 100 µM, first compound 0.0949 µM): 22.3% | viability, T/C (second compound 100 µM, first compound 0.3 µM): 19.4% | viability, T/C (second compound 100 µM, first compound 0.949 µM): 14.9% | viability, T/C (second compound 100 µM, first compound 3 µM): 9.45%
